Test results taken from PMC4305367 (Cancer Chemotherapy and Pharmacology, 2014).
Entries after “also recorded” stand apart in the source; their conditions may differ.

Legend:
[1] = tested on: Japanese patients with castration-resistant prostate cancer; experiment: Phase 1 safety assessment: adverse events (NCI-CTCAE v3.0), DLT, laboratory profiles, ECG; format: in vivo, human
From the text: The propriety of transitions to subsequent dose cohort was judged on the basis of the number of patients with dose-limiting toxicities (DLTs) during Cycle 1 (28 days). […] Patients could continue study treatment until criteria for treatment discontinuation were met. The use of aldosterone antagonists (e.g., eplerenone) was allowed for patients with clinical symptoms of mineralocorticoid excess such as hypertension, hypokalemia, and edema.
Safety assessments included the evaluation of adverse events (AEs), laboratory profiles, physical examination, and vital signs throughout the study. AEs were graded using National Cancer Institute Common Terminology Criteria for Adverse Events (NCI-CTCAE) v3.0. Analysis of serum amylase and lipase was added to the clinical laboratory tests before enrollment of patients into the 400-mg BID plus prednisolone cohort because pancreatitis was reported during the study. A safety follow-up was performed for 28 days after the final dose of the study treatment. During Cycle 1 (28 days), DLT was also evaluated. DLTs were defined as any drug-related AE of ≥ Grade 3 and pre-specified cardiac-related AEs of lower grade. Hypertension, hypokalemia, and edema attributed to increased ACTH secretion maintained at Grade 2 or lower through the use of eplerenone were not considered DLTs.

[2] = clinical; conditions: human, in vivo; for AUC(0-t): AUC0–8h; for Cmax: C max
[3] = male, human, in vivo, 24 h
[4] = tested on: serum testosterone; experiment: Pharmacodynamics: serum testosterone; format: in vivo, human; conditions: for Serum testosterone: mean (SD), LLOQ 0.05 or 0.03
Experimental: (§1) Endocrine parameters such as serum testosterone and dehydroepiandrosterone sulfate (DHEA-S) were measured for PD analysis. The blood sample were collected on Days 1, 8, 15, and 22 of Cycle 1 and then on Day 1 of each subsequent 28-day cycle. Assay procedure for testosterone was improved during the study, and the lower limit of quantification (LLOQ) for testosterone changed from 0.05 to 0.03 ng/mL.

[5] = tested on: dehydroepiandrosterone sulfate (DHEA-S); experiment: Pharmacodynamics: serum DHEA-S; format: in vivo, human; conditions: for Serum DHEA-S: mean (SD), LLOQ 2.0
Experimental: as §1

[6] = tested on: prostate-specific antigen (PSA); experiment: Serum PSA levels and PSA response (PCWG2 criteria); format: in vivo, human; conditions: during the study; 15 patients
Experimental: (§2) The efficacy endpoints were serum PSA levels, PSA response rates based on the Prostate Cancer Clinical Trials Working Group (PCWG) 2 criteria, and objective disease response rates based on the General Rule for Clinical and Pathological Studies on Prostate Cancer and modified RECIST version 1.0. PSA levels were measured on Days 1 and 15 in Cycle 1, on Day 1 of Cycle 2 and each subsequent cycle. Tumor assessments were performed on Day 29, 85, and every 12-week cycle for subsequent cycles.

[7] = tested on: castration-resistant prostate cancer; experiment: Objective disease response (General Rule for Prostate Cancer; modified RECIST 1.0); format: in vivo, human
Experimental: as §2

[8] = tested on: serum androgen levels; conditions: monkeys; cited from earlier work
[9] = General Rule for Clinical and Pathological Studies on Prostate Cancer, 15 patients

CNC(=O)c1ccc2cc([C@@]3(O)CCn4cncc43)ccc2c1 [Orteronel]
Deaths ([1]; during the study, 15 patients): No deaths were reported | Number of SAEs considered related to the study treatment ([1]; in vivo): nine | Patients with acute pancreatitis (Grades 2 and 3) or pancreatitis (Grade 1) ([1]; in vivo): three | Patients with pancreatic-related AEs ([1]; in vivo): ten | Serious AEs (SAEs) in Cycle 1 ([1]; in vivo): Neither DLTs nor serious AEs (SAEs) were reported | TEAEs associated with adrenal insufficiency ([1]; in vivo): No TEAE associated with adrenal insufficiency was reported | Treatment-related SAEs in the 200- and 300-mg BID cohorts ([1]; in vivo): No treatment-related SAE was observed | 12-lead ECG and echocardiography findings ([1]; male, human, in vivo): No clinically significant abnormal 12-lead ECG and echocardiography findings were observed | Abnormalities in hematologic test or urinalysis ([1]; male, human, in vivo): No Grade 3 or higher abnormalities were observed | Incidence of constipation (AE) ([1]; male, human, in vivo): 33% | Incidence of hyperamylasemia (AE) ([1]; male, human, in vivo): 40% | Incidence of hyperlipasemia (AE) ([1]; male, human, in vivo): 47% | Mineralocorticoid-related TEAE: hypertension ([1]; male, human, in vivo): 4 n | Mineralocorticoid-related TEAE: hypokalemia ([1]; male, human, in vivo): 3 n | Patients who experienced SAEs ([1]; male, human, in vivo): 60% | Patients with at least 1 TEAE ([1]; male, human, in vivo): 100% | Patients with at least 1 treatment-related AE ([1]; male, human, in vivo): 93% | TEAE subject incidence: Abdominal pain upper ([1]; male, human, in vivo): 2 (13) n (%) | TEAE subject incidence: Blood creatine phosphokinase increased ([1]; male, human, in vivo): 2 (13) n (%) | TEAE subject incidence: Constipation ([1]; male, human, in vivo): 5 (33) n (%) | TEAE subject incidence: Contusion ([1]; male, human, in vivo): 2 (13) n (%) | TEAE subject incidence: Dysgeusia ([1]; male, human, in vivo): 4 (27) n (%) | TEAE subject incidence: Fall ([1]; male, human, in vivo): 2 (13) n (%) | TEAE subject incidence: Hepatic function abnormal ([1]; male, human, in vivo): 4 (27) n (%) | TEAE subject incidence: Insomnia ([1]; male, human, in vivo): 2 (13) n (%) | TEAE subject incidence: Malaise ([1]; male, human, in vivo): 4 (27) n (%) | TEAE subject incidence: Nasopharyngitis ([1]; male, human, in vivo): 3 (20) n (%) | TEAE subject incidence: Nausea ([1]; male, human, in vivo): 3 (20) n (%) | TEAE subject incidence: Rash ([1]; male, human, in vivo): 3 (20) n (%) | TEAE subject incidence: Vomiting ([1]; male, human, in vivo): 2 (13) n (%) | Total number of SAEs ([1]; male, human, in vivo): 14 SAEs | AUC(0-t) ([2]; 300 mg): 14500 ng·h/mL | AUC(0-t) ([2]; 400 mg): 28600 ng·h/mL | Time to C max (T max), range over cohorts ([2]; male): 1 to 3 h | Tmax ([2]; male, 200 mg): 1 h | AUC(0-t) ([2]; male, 200 mg): 7640 ng·h/mL | Cmax ([2]; male, 200 mg): 1580 ng/mL | Tmax ([2]; male, 300 mg): 3 h | Cmax ([2]; male, 300 mg): 3100 ng/mL | Tmax ([2]; male, 400 mg): 2.97 h | Cmax ([2]; male, 400 mg): 4700 ng/mL | Fractional urinary excretion rate [3]: 36 to 47 % of the dose | Serum testosterone ([4]; Cycle 1 Day 8, 200 mg BID (N = 3), screening 0.153 (0.0611)): 0.050 (0.0000) ng/mL | Serum testosterone ([4]; Cycle 1 Day 8, 300 mg BID (N = 3), screening 0.123 (0.0702)): 0.030 (0.0000) ng/mL | Serum testosterone ([4]; Cycle 1 Day 8, 300 mg BID + prednisolone (N = 3), screening 0.127 (0.0473)): 0.030 (0.0000) ng/mL | Serum testosterone ([4]; Cycle 1 Day 8, 400 mg BID (N = 3), screening 0.057 (0.0115)): 0.050 (0.0000) ng/mL | Serum testosterone ([4]; Cycle 1 Day 8, 400 mg BID + prednisolone (N = 3), screening 0.053 (0.0058)): 0.043 (0.0115) ng/mL | Serum testosterone ([4]; Cycle 2 Day 1, 200 mg BID (N = 3), screening 0.153 (0.0611)): 0.050 (0.0000) ng/mL | Serum testosterone ([4]; Cycle 2 Day 1, 300 mg BID (N = 3), screening 0.123 (0.0702)): 0.030 (0.0000) ng/mL | Serum testosterone ([4]; Cycle 2 Day 1, 300 mg BID + prednisolone (N = 3), screening 0.127 (0.0473)): 0.030 (0.0000) ng/mL | Serum testosterone ([4]; Cycle 2 Day 1, 400 mg BID (N = 3), screening 0.057 (0.0115)): 0.050 (0.0000) ng/mL | Serum testosterone ([4]; Cycle 2 Day 1, 400 mg BID + prednisolone (N = 3), screening 0.053 (0.0058)): 0.037 (0.0115) ng/mL | Suppression of serum testosterone ([4]; by 1 week after initiation (Day 8), across all cohorts): rapidly suppressed below the lower limit of quantification; also recorded: rapidly suppressed to the LLOQ or lower | Serum DHEA-S ([5]; Cycle 1 Day 8, 200 mg BID (N = 3), screening 114.7 (8.96)): 25.0 (7.21) μg/dL | Serum DHEA-S ([5]; Cycle 1 Day 8, 300 mg BID (N = 3), screening 146.7 (79.83)): 23.3 (14.57) μg/dL | Serum DHEA-S ([5]; Cycle 1 Day 8, 300 mg BID + prednisolone (N = 3), screening 136.0 (52.68)): 6.3 (4.16) μg/dL | Serum DHEA-S ([5]; Cycle 1 Day 8, 400 mg BID (N = 3), screening 60.3 (8.50)): 9.3 (0.58) μg/dL | Serum DHEA-S ([5]; Cycle 1 Day 8, 400 mg BID + prednisolone (N = 3), screening 40.3 (7.57)): 2.3 (0.58) μg/dL | Serum DHEA-S ([5]; Cycle 2 Day 1, 200 mg BID (N = 3), screening 114.7 (8.96)): 30.0 (9.64) μg/dL | Serum DHEA-S ([5]; Cycle 2 Day 1, 300 mg BID (N = 3), screening 146.7 (79.83)): 24.3 (11.93) μg/dL | Serum DHEA-S ([5]; Cycle 2 Day 1, 300 mg BID + prednisolone (N = 3), screening 136.0 (52.68)): 2.3 (0.58) μg/dL | Serum DHEA-S ([5]; Cycle 2 Day 1, 400 mg BID (N = 3), screening 60.3 (8.50)): 19.3 (16.29) μg/dL | Serum DHEA-S ([5]; Cycle 2 Day 1, 400 mg BID + prednisolone (N = 3), screening 40.3 (7.57)): 2.0 (0.00) μg/dL | Suppression of serum DHEA-S ([5]; Day 8): suppressed | Overall median maximum PSA reduction [6]: 88.48% | Objective response rate (CR + PR) ([7]; General Rule for Clinical and Pathological Studies on Prostate Cancer, 5/15 patients): 33% | Best response of complete response (CR) [7, 9]: no patient had a best response of complete response (CR) | Patients with best response of partial response (PR) [7, 9]: five | Best response by modified RECIST version 1.0 ([7]; only six patients had measurable disease): No patient had a best response of CR or PR | Effect on serum androgen levels in vivo [8]: reduced serum androgen levels
